Where two headings read alike, the source gives them in different places. Marks after values point to notes of the source that are not given here.
Legend:
[1] = 20 mg hydrocortisone, cited from earlier work
[2] = Study 2: pharmacokinetics of individually tailored (BSA- or weight-adjusted) dose of oral HC in adrenal-insufficient patients; assay type: in vivo, human; settings: fasted
Experimental: (§1) Serum was separated from blood samples immediately after collection and stored at minus 20° C. until analysis. Cortisol concentrations were measured using an ACS:180 automatic chemiluminescence system (Kiron Diagnostic Corporation, East Walpole, USA). Intra- and inter-assay coefficients of variation were less than 7.6%.
(§2) The study was carried out in two groups of adrenal-insufficient patients, and a group of healthy subjects. It was approved by the North Sheffield Local Research Ethics Committee, and all participants gave written informed consent. All patients had primary or secondary adrenal insufficiency based on a 0900 h serum cortisol level off treatment of less than 50 nmol/l. Normal controls were matched to the second group of patients for gender, age, height, weight and BSA within 10% of individual patients. Patients on oestrogen replacement were studied after having stopped oestrogen for 6 weeks.
Study 2—Pharmacokinetics of individually tailored dose of oral HC and testing of monitoring protocol: A further 10 patients (6M, 4F; 46-68 y; BMI 24.4-35.5 kg/m^2) were studied after receiving HC doses of 5.5 mg/m^2 BSA (to the nearest practical dose unit) at 0830 h, 1 h before breakfast. The dosage was derived from analysis of the Study 1 data to minimise inter-subject variability. A tablet cutter was used to adjust the HC dose in 2.5 mg quanta, i.e. quarters of 10 mg tablets. Thus, the absolute dose ranged from 7.5 to 12.5 mg. Blood sampling was as in Study 1. Serum concentrations of endogenous cortisol were measured in 7 healthy subjects (3M, 4F; 44-68 y; BMI 23.2-28.7 kg/m^2) at the same time points as the patients but without ingestion of HC.
Owing to the discrete nature of dose increments (multiples of 2.5 mg) 9 of the 10 patients who had taken the BSA-adjusted HC dose would still require the same dose if this had been weight-adjusted. Only one of the 10 patients needed a reduction in the HC dose from 12.5 mg to 10.0 mg to be in the nearest weight-adjusted dose range.
Therefore, in the part of our analysis that was related to body weight-adjusted doses, the serum cortisol levels of this patient were normalised to a 10.0 mg dose assuming concentration-dose proportionality.
(§3) Kinetic analysis of the serum cortisol concentration-time profiles in the patients was carried out using the software package, P-Pharm (version 1.5, InnaPhase, France), assuming mono-exponential disposition, first-order absorption, and a baseline correction to account for any endogenous levels of cortisol. Values of oral clearance (CL/F), volume of distribution (V/F), absorption rate constant (ka) and absorption lag time (tlag) were obtained from the model fitting and were used to derive other parameter values. Bias in dosing was assessed as the percentage difference in AUC values in patients compared to the AUC of endogenous cortisol in the healthy subjects over the same time period. Variability in the features of the serum cortisol concentration-time profile in the patients was expressed as coefficient of variation (CV). The effect of food intake in Study 1 was assessed using ANOVA, accounting for repeat individual measurements in the fasting state. Body surface area, weight, height, BMI, dose of HC, gender and age were also investigated as co-variables. All statistical analyses were carried out using SPSS version 10.0 (SPSS Inc, USA).

[3] = in vivo; cited from earlier work
[4] = Study 1: pharmacokinetics of 10 mg fixed dose oral HC in adrenal-insufficient patients; assay type: in vivo, human; settings: for oral clearance / half-life: 10 mg oral, mean±S.E.M.; for Bias (AUC), % difference from healthy matched controls / Variability in AUC (C.V.) / Variability in Cmax (C.V.): Fixed 10 mg, listed as HC; for half-life: both sexes, human, serum, po, 10 mg, read-out: absorption half-life
Experimental: as §1, §2
Study 1—Pharmacokinetics of 10 mg fixed dose oral HC: Ten patients (5M, 5F, Age 32-72 yrs, BMI 21.7-35.8 kg/m^2) attended the Programmed Investigation Unit on 3 occasions. They discontinued HC replacement from noon on the day prior to the study and fasted from midnight. On the first and third occasions, the patients fasted throughout the study and, on the second occasion, they received a standard breakfast 20-30 minutes before receiving HC. On each of the 3 study days, patients received 10 mg of HC (Hydrocortone™, Merck, Sharp and Dohme) orally, between 0800-0900 h. Peripheral venous blood samples were taken immediately before dosage and at 20, 40, 50, 60, 70, 80, 90, 100, 120, 180, 240, 300 and 360 minutes after dosage; the serum was collected and stored pending assay for HC.
as §3

[5] = cited from earlier work
ACTH = test: Circadian hydrocortisone infusion in a patient with congenital adrenal hyperplasia (CAH), ACTH and 17-OH progesterone; assay type: in vivo, human
Experimental: A treatment regime involves the following protocol. A patient begins a treatment regime at 0830 having taken normal medication the day before. An indwelling cannula is inserted into the patient and basal blood samples are obtained to determine basal levels of cortisol. An infusion cannula is inserted for the administration of a bolus dose of hydrocortisone. Hydrocortisone is administered by infusion once basal samples taken (Patient details: body weight=113 kg; iv bolus 24 mg at 09:00 and follow the infusion rates changed on hourly bases). Total dose for the 1st day is 34.3 mg and 21.8 mg is given by 09:00 in the 2nd day). Samples are taken from the patient periodically from 0900 to 0900 and sampled hourly for cortisol, and ACTH
Dilute 100 mg of hydrocortisone in 2 ml of water for injection (concentration 1 mg/20 ul). Give bolus injection of 24 mg hydrocortisone (480 ul or 0.48 ml of hydrocortisone) using a 1 ml insulin syringe. Flush through with normal saline. For infusion put 50 mg of hydrocortisone (1 ml) in 49 mls normal saline=1 mg/ml and the run infusion according to the protocol above.
as §1
The method comprised the infusion of a patient suffering from CAH with hydrocortisone and the measurement of cortisol and ACTH levels. The patient is a person with CAH who is currently treated with oral hydrocortisone.
The infusion protocol for the patient is described in FIG. 5. […] Concomitant with the fall in ACTH the 17-OH progesterone fell from >500 nmol/l to a nadir of 67 nmol/l.

[6] = Weight-adjusted (0.12 mg/kg), if weight adjustment was assumed

For `C[C@]12CCC(=O)C=C1CC[C@@H]1[C@@H]2[C@@H](O)C[C@@]2(C)[C@H]1CC[C@]2(O)C(=O)CO` [hydrocortisone, Hydrocortisone], the half-life ([1]; IV administration) is listed as 102 min, the total body clearance ([1]; IV administration) is listed as 18 L/h and the volume of distribution ([1]; IV administration) is listed as 34 L. For the same compound, the Oral bioavailablity ([1]; oral vs IV, average) was 96%, the “time to maximum levels (absorption)” value ([1]; oral) was 1 h and the “Bias (AUC), % difference from healthy matched controls” value (shortened to “Bias (AUC), % difference”) ([2]; BSA-adjusted (5.5 mg/m^2)) was 7.4%. The “Variability in AUC (C.V.)” value ([2]; BSA-adjusted (5.5 mg/m^2)) was 24%**, the “Variability in Cmax (C.V.)” value ([2]; BSA-adjusted (5.5 mg/m^2)) was 10%* and the “Variability in AUC (C.V.)” value [2, 6] was 22%**. For the same compound, the “Variability in Cmax (C.V.)” value [2, 6] was 7%*, the oral bioavailability [3] was 94-96% and the oral clearance ([4]; fasted) was 0.270 ± 0.027 L/min. The oral clearance ([4]; fed) was 0.226 ± 0.031 L/min, the “Bias (AUC), % difference” value ([4]; fasted) was 6.3% and the “Variability in AUC (C.V.)” value ([4]; fasted) was 50%. For the same compound, the “Variability in Cmax (C.V.)” value ([4]; fasted) was 31%, the “Bias (AUC), % difference” value ([4]; fed) was 24.5% and the “Variability in AUC (C.V.)” value ([4]; fed) was 45%. The “Variability in Cmax (C.V.)” value ([4]; fed) was 36%, the half-life ([4]; fasted) was 15 ± 4 min and the half-life ([4]; fed) was 43 ± 12 min. The “circulating cortisol bound to CBG” value ([5]; basal conditions, plasma) was “about 75%”, the “cortisol and metabolites conjugated in the liver and excreted in the urine” value ([5]; in vivo) was “Over 90%” and the “cortisol excreted in the urine unchanged” value ([5]; in vivo) was “less than 1%”. For the same compound, the “17-OH progesterone before the fall” value (ACTH; CAH patient on conventional oral hydrocortisone therapy, start of infusion) was over 500 nmol/L, the 17-OH progesterone nadir (ACTH; CAH patient, during hydrocortisone infusion) was 67 nmol/L and the “morning ACTH after overnight increase in cortisol” value (ACTH; CAH patient, infusion simulating delayed and sustained release hydrocortisone) was “prevents the high morning ACTH”. For the same compound, the “ACTH during the infusion” value (ACTH; CAH patient, iv bolus 24 mg then circadian infusion) was “rapidly falls”.
